Results: patent publication US20050282755A1, “Compositions having antimicrobial activity and uses thereof” (priority 2004, published 2005)
In brackets after ≈: the same amount, converted by molar mass. Non-standard residues stand in square brackets, D forms with d. Residues, ends and D or L forms follow the SMILES beside them. *: point of attachment. Stearoyl = CCCCCCCCCCCCCCCCCC(=O)*; Lauroyl = CCCCCCCCCCCC(=O)*; Octanoyl = CCCCCCCC(=O)*; Hexanoyl = CCCCCC(=O)*

Experiments:
Assay type in all cases: cell-based
Salmonella dublin (Lane) = assay: MIC, NCCLS M7-A6 broth microdilution (Table 9, no superscript)
Description: (§1) Cation-adjusted Mueller Hinton broth was used in the broth microdilution method. In brief, a log-phase bacterial suspension was used to inoculate wells of a 96-well plate so that the final inoculum for each well contained 5×10^5 to 1×10^6 CFU/milliliter. […] Plates were incubated overnight at 37° C. The lowest concentration of peptide that contained no visible growth as evidenced by a lack of turbidity when compared to the control (no peptide) was determined as the MIC. Unless otherwise noted, MIC values listed in Table 9 utilized this method of MIC determination.

[1] = tested on: Pseudomonas aeruginosa ATCC 27853; assay: as above; conditions: ATCC 27853
Description: as §1

[2] = tested on: Staphylococcus epidermidis ATCC 12228; assay: as above; conditions: ATCC 12228
Description: as §1

[3] = tested on: Escherichia coli ATCC 25922; assay: as above; conditions: ATCC 25922
Description: as §1

[4] = tested on: Staphylococcus aureus ATCC 29213; assay: MIC, NCCLS M7-A6 broth microdilution, cation-adjusted Mueller Hinton broth (Table 9, no superscript); conditions: ATCC 29213
Description: as §1

Row | Structure (SMILES) | MIC S. dublin (Salmonella dublin (Lane)) | MIC P. aeruginosa [1] | MIC S. epidermidis [2] | MIC E. coli [3] | MIC S. aureus [4]
1 | CCCCCCCCCCCC(=O)N[C@H](C(=O)N[C@@H](CCCNC(=N)N)C(=O)N[C@H](C(=O)N[C@@H](CO)C(=O)N[C@@H](CCCNC(=N)N)C(=O)N[C@H](C(=O)NCC(=O)N[C@@H](CCCNC(=N)N)C(=O)N[C@@H](CO)C(=O)N[C@@H](CCCNC(=N)N)C(=O)N[C@@H](Cc1c[nH]c2ccccc12)C(=O)N[C@@H](CCCNC(=N)N)C(=O)N[C@@H](CC(=O)O)C(=O)N[C@@H](Cc1c[nH]c2ccccc12)C(=O)N[C@@H](CO)C(=O)N[C@@H](CCCNC(=N)N)C(=O)N[C@@H](CC(N)=O)C(=O)N[C@@H](Cc1ccccc1)C(=O)N[C@@H](CCSC)C(=O)N[C@@H](CCCNC(=N)N)C(=O)N[C@@H](CC(C)C)C(=O)N[C@@H](CC(C)C)C(N)=O)[C@@H](C)O)C(C)C)[C@@H](C)O [Peptide 68] (Lauroyl-TRVSRTGRSRWRDWSRNFMRLL-NH2) | 16 µg/mL (≈ 5.3 µM) | >64 µg/mL | 8 µg/mL (≈ 2.65 µM) | 64 µg/mL (≈ 21.2 µM) | 32 µg/mL (≈ 10.6 µM)
2 | CCCCCCCCCCCCCCCCCC(=O)N[C@@H](C(=O)N[C@H](CCCNC(=N)N)C(=O)N[C@@H](C(=O)N[C@H](CO)C(=O)N[C@H](CCCNC(=N)N)C(=O)N[C@@H](C(=O)NCC(=O)N[C@H](CCCNC(=N)N)C(=O)N[C@H](CO)C(=O)N[C@H](CCCNC(=N)N)C(=O)N[C@H](Cc1c[nH]c2ccccc12)C(=O)N[C@H](CCCNC(=N)N)C(=O)N[C@H](CC(=O)O)C(=O)N[C@H](Cc1c[nH]c2ccccc12)C(=O)N[C@H](CO)C(=O)N[C@H](CCCNC(=N)N)C(=O)N[C@H](CC(N)=O)C(=O)N[C@H](Cc1ccccc1)C(=O)N[C@H](CCSC)C(=O)N[C@H](CCCNC(=N)N)C(=O)N[C@H](C)C(=O)N[C@H](C)C(=O)N[C@@H](CCCCN)C(N)=O)[C@H](C)O)C(C)C)[C@H](C)O [Peptide 81, Stearyl-trvsrtgrsrwrdwsrnfmraaK-NH2] (Stearoyl-[dT][dR][dV][dS][dR][dT]G[dR][dS][dR][dW][dR][dD][dW][dS][dR][dN][dF][dM][dR][dA][dA]K-NH2) | 32 µg/mL (≈ 10.2 µM) | >64 µg/mL | 64 µg/mL (≈ 20.3 µM) | 64 µg/mL (≈ 20.3 µM) | 64 µg/mL (≈ 20.3 µM)
3 | CSCC[C@@H](NC(=O)[C@@H](Cc1ccccc1)NC(=O)[C@@H](CC(N)=O)NC(=O)[C@@H](CCCNC(=N)N)NC(=O)[C@@H](CO)NC(=O)[C@@H](Cc1c[nH]c2ccccc12)NC(=O)[C@@H](CC(=O)O)NC(=O)[C@@H](CCCNC(=N)N)NC(=O)[C@@H](Cc1c[nH]c2ccccc12)NC(=O)[C@@H](CCCNC(=N)N)NC(=O)[C@@H](CO)NC(=O)[C@@H](CCCNC(=N)N)NC(=O)CNC(=O)[C@H](NC(=O)[C@@H](CCCNC(=N)N)NC(=O)[C@@H](CO)NC(=O)[C@H](NC(=O)[C@@H](CCCNC(=N)N)NC(=O)[C@H](NC(C)=O)[C@H](C)O)C(C)C)[C@H](C)O)C(=O)N[C@H](CCCNC(=N)N)C(=O)N[C@H](C)C(=O)N[C@H](C)C(=O)N[C@@H](CCCCNC(C)=O)C(N)=O [Peptide 84, Ac-trvsrtgrsrwrdwsrnfmraaK(Ac)-NH2] (Ac-[dT][dR][dV][dS][dR][dT]G[dR][dS][dR][dW][dR][dD][dW][dS][dR][dN][dF][dM][dR][dA][dA]K(Ac)-NH2) | – | >64 µg/mL | 32 µg/mL (≈ 10.8 µM) | >64 µg/mL | –
4 | CCCCCCCCCCCCCCCCCC(=O)N[C@@H](C(=O)N[C@H](CCCNC(=N)N)C(=O)N[C@@H](C(=O)N[C@H](CO)C(=O)N[C@H](CCCNC(=N)N)C(=O)N[C@@H](C(=O)NCC(=O)N[C@H](CCCNC(=N)N)C(=O)N[C@H](CO)C(=O)N[C@H](CCCNC(=N)N)C(=O)N[C@H](Cc1c[nH]c2ccccc12)C(=O)N[C@H](CCCNC(=N)N)C(=O)N[C@H](CC(=O)O)C(=O)N[C@H](Cc1c[nH]c2ccccc12)C(=O)N[C@H](CO)C(=O)N[C@H](CCCNC(=N)N)C(=O)N[C@H](CC(N)=O)C(=O)N[C@H](Cc1ccccc1)C(=O)N[C@H](CCSC)C(=O)N[C@H](CCCNC(=N)N)C(=O)N[C@H](C)C(=O)N[C@H](C)C(=O)N[C@@H](CCCCNC(C)=O)C(N)=O)[C@H](C)O)C(C)C)[C@H](C)O [Peptide 86, Stearyl-trvsrtgrsrwrdwsrnfmraaK(Ac)-NH2] (Stearoyl-[dT][dR][dV][dS][dR][dT]G[dR][dS][dR][dW][dR][dD][dW][dS][dR][dN][dF][dM][dR][dA][dA]K(Ac)-NH2) | – | >64 µg/mL | 32 µg/mL (≈ 10 µM) | >64 µg/mL | –

Further lines, results first:

Row | MIC S. dublin (Salmonella dublin (Lane)) | MIC P. aeruginosa [1] | MIC S. epidermidis [2] | MIC E. coli [3] | MIC S. aureus [4] | Structure (SMILES)
5 | >64 µg/mL | – | – | – | >64 µg/mL | CCCCCC(=O)NCCCC[C@@H](NC(=O)[C@@H](CCCNC(=N)N)NC(=O)[C@@H](CCSC)NC(=O)[C@@H](Cc1ccccc1)NC(=O)[C@@H](CC(N)=O)NC(=O)[C@@H](CCCNC(=N)N)NC(=O)[C@@H](C)NC(=O)[C@H](NC(=O)[C@@H](CC(=O)O)NC(=O)[C@@H](CCCNC(=N)N)NC(=O)[C@@H](Cc1c[nH]c2ccccc12)NC(=O)[C@@H](CCCNC(=N)N)NC(=O)[C@@H](CO)NC(=O)[C@H](N)CCCNC(=N)N)C(C)C)C(N)=O [Peptide 197, H2N-rsrwrdvarnfmrk(Hexanyl)-NH2] (H-[dR][dS][dR][dW][dR][dD][dV][dA][dR][dN][dF][dM][dR][dK](Hexanoyl)-NH2)
6 | >64 µg/mL | – | – | – | 32 µg/mL (≈ 17.1 µM) | CCCCCCCC(=O)N[C@@H](CCCNC(=N)N)C(=O)N[C@@H](CO)C(=O)N[C@@H](CCCNC(=N)N)C(=O)N[C@@H](Cc1c[nH]c2ccccc12)C(=O)N[C@@H](CCCNC(=N)N)C(=O)N[C@@H](CC(=O)O)C(=O)N[C@H](C(=O)N[C@@H](C)C(=O)N[C@@H](CCCNC(=N)N)C(=O)N[C@@H](CC(N)=O)C(=O)N[C@@H](Cc1ccccc1)C(=O)N[C@@H](CCSC)C(=O)N[C@@H](CCCNC(=N)N)C(N)=O)C(C)C [Peptide 203, Octyl-RSRWRDVARNFMR-NH2] (Octanoyl-RSRWRDVARNFMR-NH2)
7 | 16 µg/mL (≈ 7.29 µM) | – | – | – | 8 µg/mL (≈ 3.64 µM) | CCCCCCCCCCCC(=O)NCCNC(=O)C[C@H](CCCNC(=N)N)NC(=O)C[C@H](CC(C)C)NC(=O)C[C@H](Cc1ccccc1)NC(=O)C[C@H](CCCNC(=N)N)NC(=O)C[C@H](CC(N)=O)NC(=O)C[C@@H](NC(=O)C[C@H](CCCNC(=N)N)NC(=O)C[C@H](CC(=O)O)NC(=O)C[C@@H](NC(=O)C[C@H](CCCNC(=N)N)NC(=O)C[C@H](CO)NC(=O)C[C@H](Cc1c[nH]c2ccccc12)NC(=O)C[C@@H](N)CCCNC(=N)N)[C@@H](C)CC)[C@@H](C)CC [Peptide 216, H2N-RWSRIDRINRFLR-Ethylamidolauryl all amino acids are beta3]
8 | >64 µg/mL | – | – | – | >64 µg/mL | CCCCCCCCCCCC(=O)N[C@H](CCCNC(=N)N)C(=O)N[C@H](CC(C)C)C(=O)N[C@H](CCCNC(=N)N)C(=O)N[C@H](Cc1c[nH]c2ccccc12)C(=O)N[C@H](CCCNC(=N)N)C(=O)N[C@H](CC(C)C)C(=O)N[C@@H](C(=O)N[C@H](CC(C)C)C(=O)N[C@H](CCCNC(=N)N)C(=O)N[C@H](CC(C)C)C(=O)N[C@H](Cc1ccccc1)C(=O)N[C@H](CC(C)C)C(=O)N[C@H](CCCNC(=N)N)C(N)=O)C(C)C [Peptide 218, Lauryl-rlrwrlvlrlflr-NH2] (Lauroyl-[dR][dL][dR][dW][dR][dL][dV][dL][dR][dL][dF][dL][dR]-NH2)
